The source of these data is patent publication US20230158067A1 (priority 2020, published 2023).

For orientation: EC50 means the concentration that produces a half-maximal response. The low end stands for greater potency, the high end for weaker potency. For orientation: EC90 means the concentration at which the effect reaches the 90% level.

The test system of one data set is SARS-CoV2. Kind of data set: microbe, parasite or virus in culture. The data set is classed as cell-based. As to conditions: for Percentages of infection at 24 h: MOI 0.002, technical replicates.
For a further data set, the system named is Vero cells. As to conditions: uninfected Vero cells, MTT, 24 h.
Where [1] appears, read: Severe acute respiratory syndrome coronavirus 2, Vero, 24 h.

Values joined by “and” are separate entries in the source; they are usually repeats but may differ in a detail not shown here. Equal entries are not always repeated.

Turning to `CCC(CC)COC(=O)[C@H](C)N[P@](=O)(OC[C@H]1O[C@@](C#N)(c2ccc3c(N)ncnn23)[C@H](O)[C@@H]1O)Oc1ccccc1` [Remdesivir], the “Percentages of infection at 24 h” value in the data set on SARS-CoV2 (0.01 μM) was 17.52% and 14.77% and 19.44%; in the data set with SARS-CoV2 (0.03 μM), 20.60% and 10.69% and 23.44%; in the data set with SARS-CoV2 (0.08 μM), 37.97% and 32.40% and 10.00%; with SARS-CoV2 (0.25 μM), 8.05% and 17.17% and 39.50%; with SARS-CoV2 (0.74 μM), 10.55% and 6.40% and 14.40%; with SARS-CoV2 (2.22 μM) it was 2.04% and 1.54% and 1.69%. The “Percentages of infection at 24 h” value in the data set on SARS-CoV2 (6.67 μM) was 0.34% and 0.27% and 0.23%; in the data set on SARS-CoV2 (20.00 μM), 0.78% and 0.24% and 0.27%. For the same compound, in the data set on SARS-CoV2 (setting [1]), the response was half-maximal at 0.654 µM (EC50). This compound displayed an EC90 in the data set with SARS-CoV2 (setting [1]) of 1690 µM. The same compound yielded a TC90 in the data set with Vero cells of 3.4416 µM.
